Source: patent US9290737B2, “Method for enucleating nucleated erythrocyte, and enucleation inducer” (Kanazawa Medical University, priority 2009, dated 2016)
Where no end group is shown, it is not given here.

What was measured:
Type in all cases: cell-based
[1] = test system: nucleated erythrocytes derived from a fetal rat; test: Enucleation rate of nucleated erythrocytes derived from fetal rat (DAPI staining, fluorescence microscope count); settings: vs control without peptide
Procedure: Experimental rats were bred, and peripheral blood was collected from 12 fetuses aged 13 days post coitum.
The collected peripheral blood was centrifuged at 1,000×g for 5 minutes at room temperature (centrifuge: Hitachi/05PR-22). Then, serum was removed, and blood cells were suspended in 10 ml of culture medium (supplemented with 10% FBS (Sigma/CR1211)/RPMI-1640 Medium (c) (Sigma/R8578)/1% penicillin-streptomycin (Sigma/P4333)) in a clean bench. This suspension was centrifuged again, a supernatant was removed, and the cells were resuspended in the culture medium. This manipulation was repeated twice, and finally the cells were suspended in 10 ml of the culture medium to prepare a sample for culturing peripheral blood.
A blood cell (cell) density was counted using about 10 μl of this sample and a hemocytometer (Burker-Turk Deep 1/10 mm/Erma Tokyo/7787), and the sample was diluted based on the counted value to adjust to 2×10^6 cells/ml.
(§1) This sample was diluted to a cell density of 1×10^6 cells/ml with the culture medium, to which ACTH1-24 (SEQ ID NO: 2, manufactured by Sigma) was added at a final concentration of 1 μM or 5 μM to use as a subject culture medium. The sample to which no ACTH1-24 was added was used as a control.
1 ml each of the various subject culture media was dispensed into a 4-well chamber slide glass (Chamber Slide™ System/Lab Tek (registered trademark)/177380), and cultured for a predetermined period of time in an incubator (Sakura CO2 gas Incubator/Sakura/IC-160) under the condition at 37° C. at 5% CO2.
At 0, 3, and 6 hours of the culture, the cells in each subject culture medium were fixed with glutaraldehyde (25% glutaraldehyde solution/Wako Pure Chemical Industries Ltd./073-00536) at a final concentration of 2%. DAPI (1 mg/ml of DAPI solution/DOJINDO/340-07971) for staining nuclei was dripped to the culture medium at a final volume ratio of 1/20,000, which was then shaken for 5 minutes, subsequently excited by a UV source using a fluorescence microscope (OLYMPUS IX70), and 10 fixed points were photographed. Then, the number of cells in the photograph was counted.
The enucleation rate was calculated as follows. Enucleation rate (%)={Enucleated erythrocyte count/Total cell count (Nucleated cell (including nucleated erythrocytes and mesenchymal stem cells) count+Enucleated erythrocyte count)} […]
as §1, with “CLIP” for “ACTH1-24”, “11, manufactured by Sigma) or α-MSH (SEQ ID NO: 3,” for “2,”, “neither CLIP nor α-MSH” for “no ACTH1-24”
250 μl each of the various subject culture media were dispensed in an 8-well chamber slide glass (Chamber Slide™ System/Lab TekR/177402), and cultured for a predetermined period of time in an incubator under the condition at 37° C. at 5% CO2. At 3, 6, and 9 (only for the 5-μM addition samples) hours of the culture, each subject culture medium was sampled, and the culture medium was fixed with glutaraldehyde at a final concentration of 2%. DAPI for staining nuclei was dripped to the culture medium, which was then shaken for 5 minutes, subsequently microscopically observed using a fluorescence microscope, and 10 field images were randomly determined and photographed. The number of cells in each of the photographs was counted, and the mean value thereof was calculated. The enucleation rate was calculated in the same way as in Example 1.

[2] = test system: nucleated erythrocytes derived from human cord blood; test: Enucleation rate of nucleated erythrocytes derived from human cord blood CD34-positive cells (DAPI staining and flow cytometry); settings: 5.0 μM added on Day 4 in phase II, measured on Day 9; DAPI staining (FIG. 7) and flow cytometry (FIG. 8)
Procedure: CD34-positive hematopoietic stem cells derived from a human (derived from the cord blood, 90% or more CD34-positive, product from Lonza:
http://catalog.takara-bio.co.jp/product/basic_info.asp?unitid=U10 0004262) were cultured in HPGM medium. The cells at a density of 2×10^4 to 2×10^5 cells/ml were cultured with 25 ng/ml of SCF, 50 ng/ml of thrombopoietin, and 50 ng/ml of Flt-3 ligand for first 7 days, and this was used as a phase I.
Next, the cells at a density of 2×10^5 cells/ml were cultured with 3 U/ml of EPO, 25 ng/ml of SCF, 10 ng/ml of IL-3, and 10 ng/ml of IL-6, and this was used as a phase II. The cells were cultured with the addition of ACTH1-24, ACTH1-39, CLIP, or α-MSH at a concentration of 5.0 μM, or ACTH1-24 at a concentration of 0.5 μM on Day 4 in the phase II.
The erythrocytes in the above-mentioned phase II cultured with ACTH1-24, ACTH1-39, CLIP, or α-MSH on Day 9 were fixed with 10% formalin, and stained with 4′,6-diamidino-2-phenylindole (DAPI). Ten photographs were randomly taken under a fluorescence microscope, and the numbers of nucleated and enucleated erythrocytes were visually counted. The measurement was carried out in the blinded manner. The enucleation rate was calculated in the same manner as in Example 1.
(§2) Double staining for glycophorin A (Gly A) and the nucleus (propidium iodide, PI) was given to blood cells in the phase II cultured with ACTH1-24, CLIP, or α-MSH on Day 9 in the same manner as in the foregoing. The cells were analyzed using a flow cytometry (automatic cell analysis sorting apparatus, FACS Calibur/Becton Dickinson). Gly A-positive/PI-negative cells (corresponding to the left upper fraction of four dot plot fractions divided by data from flow cytometry in FIG. 9B) were determined as enucleated cells, and the enucleation rate of these enucleated cells relative to the total cells was calculated.

[3] = test system: cells differentiating into erythrocytes derived from human cord blood; test: Enucleation efficiency of cells derived from human cord blood (flow cytometry, Gly A/PI); settings: 0.5 μM, culture as in Example 4, flow cytometry (FIG. 9A)
Procedure: as §2
ACTH1-24 at a concentration of 0.5 μM was added to the culture carried out in the same manner as in Example 4, and the enucleation rate was measured by flow cytometry.
Gly A is a surface marker of erythroblasts, reticulocytes, and mature erythrocytes. Thus, this method was cited as a method of measuring the percentage of “enucleated erythrocytes”/“cells differentiating into erythrocytes” in a population of blood cells including immature erythrocytes (see Peng J. et al., Nat. Cell Biol., 10: 314-321, 2008).

[4] = final concentration 1 μM, after 6 hours of culture
[5] = final concentration 5 μM, 3 hours of culture

Substance | induction of enucleation (enucleation rate) [1, 4] | induction of enucleation (enucleation rate) [1, 5] | induction of enucleation (enucleation rate) [2] | induction of enucleation (enucleation rate) ([1]; final concentration 5 μM, after 6 hours of culture) | percentage of enucleated erythrocytes in cells differentiating into erythrocytes [3]
RPVKVYPNGAEDESAEAFPLEF [CLIP, Corticotropin-Like Intermediate Lobe Peptide, manufactured by Sigma] | able to be induced | able to be induced | able to be induced |  | 
Acetyl-(N)-Ser-Tyr-Ser-Met-Glu-His-Phe-Arg-Trp-Gly-Lys-Pro-Val-NH2 (Ac-SYSMEHFRWGKPV-NH2) [α-MSH, melanocyte-stimulating hormone peptide containing an acetyl group, manufactured by Sigma] | able to be induced | able to be induced | able to be induced |  | 
SYSMEHFRWGKPVGKKRRPVKVYPNVAENESAEAFPLEF [ACTH1-39, adrenocorticotropic hormone, manufactured by Sigma] |  | higher than that in the control | able to be induced |  | 
Ser-Tyr-Ser-Met-Glu-His-Phe-Arg-Trp-Gly-Lys-Pro-Val-Gly-Lys-Lys-Arg-Arg-Pro-Val-Lys-Val-Tyr-Pro (SYSMEHFRWGKPVGKKRRPVKVYP; ACTH1-24) | able to be induced |  | able to be induced | able to be induced | about 70%
